In US11648289B2, “Antibacterial method” (priority 2016, dated 2023):
Read-outs that look alike come from different tables or passages of the source. No end group written: not given here.

Assays:
[1] = test system: B. cercus LMGT 2735
Procedure: (§1) Bacterial strains, growth conditions, bacteriocins and antimicrobial assays. All the strains (see below) used in minimal inhibitory concentration (MIC) assays (Varahan et al., 2014, M. Bio. 5:e01726-01714) were grown in BHI medium (Oxoid) at 30° C. without shaking. A collection of E. faecium strains isolated from blood in patients from different European hospitals was received from Department of Medical Microbiology, University Medical Center Utrecht, the Netherlands. […] Synthesized peptides were solubilized to concentrations of 10.0-0.1 mg/ml in 0.1% (vol/vol) trifluoroacetic acid and stored at −20° C. until use. […] Bacteriocin activity was determined by microtiter plate assay as previously described (Holo et al., 1991, J. Bacteriol., 173:3879-3887). The MIC was defined as the minimal bacteriocin concentration that inhibited the growth of the indicator strain by at least 50% (50% of the turbidity of the control culture without bacteriocin) in 200 μl culture. CD Spectroscopy Circular dichroism (CD) spectra were recorded using a Jasco J-810 spectropolarimeter (Jasco International Co) calibrated with D-camphor-10-sulfonate (Icatayama Chemical). All measurements were made using a quartz cuvette (Sterna) with 0.1 cm path length. Samples were scanned five times with a scanning rate of 50 nm/min with a bandwidth of 0.5 nm and response time of 1 s over the wavelength range 190-250 nm. Spectra were recorded at different (30 and 50%) trifluoroethanol (TFE) (Aldridge) concentrations at 25° C. The approximate α-helical content of the protein was estimated from its molar ellipticity at 222 nm (Scholtz et al., 1991, Biopolymers 31:1463-1470). NMR Spectroscopy The experiments were run on a sample containing 1.0 mM EntK1, 50% D3-TFE (99.5% D) (Aldrich), Milli-Q water and 0.2 mM of 4,4-dimethyl-4-silapentane-1-sulfonic acid (DSS) (Larodan). 2D NOESY (Jeener et al., 1979, J. Magn. Reson., 71:4546-4553), 2D TOCSY (Braunschweiler and Ernst, 1983, J. Magn. Reson., 53:521-528), 2D DQCOSY, ^15N-HSQC (Davis et al., 1992, J. Magn. Reson., 98:207-216) and ^13C-HSQC (Hurd, 1991, J. Magn. Reson., 91:648-653) were recorded. The data was acquired on a 600 MHz Bruker Avance II spectrometer with four channels and a 5 mm TCI cryoprobe (Bruker Biospin). NOESY spectra with mixing times between 120 ms and 300 ms were obtained for both samples. TOCSY mixing times of 15-80 ms were used. The experiments were run at 298.15 K. Spectra were processed using the Topspin program (Bruker Biospin). 4,4-dimethyl-4-silapentane-1-sulfonic acid (DSS) was used as a chemical shift standard, and ^15N and ^13C data were referenced using frequency ratios as described in (Wishart et al., 1995, J. Biomol. NMR., 6:135-140). For visualization, assignment and integration of the spectra the computer program CARA was used (Keller, 2004, The Computer Aided Resonance Assignment Tutorial. CANTINA Verlag, Goldau, Switzerland). The spectra were assigned using standard methods. Dihedral angle restraints were obtained from the chemical shift values using the program TALOS-N(Shen and Bax, 2013, J. Biomol. NMR, 56:227-241). Nuclear Overhauser effect (NOE) distance restraints were calculated from the peak volumes in the NOESY spectra with NOESY mixing time of 200 ms. All structure calculations were made using the structure calculation program CYANA 2.1 (Guntert et al., 1997, J. Mol. Biol., 273:283-298; Herrmann et al., 2002, J. Mol. Biol., 319:209-227). The annealing macro in CYANA calculated 100 structures. The 20 structures with the lowest energy were kept and analyzed further. The root-mean-square deviation (RMSD) was calculated and the structures were visualized using MolMol (Koradi et al., 1996, J. Mol. Graph., 14:51-55, 29-32). Generation of bacteriocin resistant mutants of E. faecalis and E. faecium.

[2] = test system: B. cereus LMGT 3025
Procedure: as §1

[3] = test system: E. faecalis LMGT 3143
Procedure: as §1

[4] = test system: E. faecalis LMGT 3330
Procedure: as §1

[5] = test system: E. faecalis LMGT 3359
Procedure: as §1

[6] = test system: E. faecalis LMGT 3386
Procedure: as §1

[7] = test system: E. faecalis LMGT 3567
Procedure: as §1

[8] = test system: E. faecalis LMGT 3572
Procedure: as §1

[9] = test system: E. faecium LMGT 2787
Procedure: as §1

[10] = test system: E. faecium LMGT 3110
Procedure: as §1

[11] = test system: L. cremoris LMGT 2057
Procedure: as §1

[12] = test system: L. curvatus LMGT 2355
Procedure: as §1

[13] = test system: L. lactis LMGT 2084
Procedure: as §1

[14] = test system: L. lactis LMGT 2095
Procedure: as §1

[15] = test system: L. lactis LMGT 2233
Procedure: as §1

[16] = test system: Lactobacillus sakei LMGT 2334
Procedure: as §1

[17] = test system: Listeria monocytogenes LMGT 2651
Procedure: as §1

[18] = test system: S. aureus LMGT 3260
Procedure: as §1

[19] = test system: S. aureus LMGT 3266
Procedure: as §1

[20] = test system: S. pneumoniae ds220 non-induced; conditions: WT rseP
Procedure: as §1

[21] = test system: S. pneumoniae ms2; conditions: ms2, rseP E19>A, induced with ComS (2 μM)
Procedure: as §1

[22] = test system: Staphylococcus. aureus LMGT 3310
Procedure: as §1

Sequence	MIC 50 [1]	MIC 50 [2]	MIC 50 [3]	MIC 50 [4]	MIC 50 [5]	MIC 50 [6]	MIC 50 [7]	MIC 50 [8]	MIC 50 [9]	MIC 50 [10]	MIC 50 [11]	MIC 50 [12]	MIC 50 [13]	MIC 50 [14]	MIC 50 [15]	MIC 50 [17]	MIC 50 [18]	MIC 50 [19]	MIC [20]	MIC [21]	other results
MKFKFNPTGTIVKKLTQYEIAWFKNKHGYYPWEIPRC [EntK1]	>5.5 µM	>5.5 µM	>5.5 µM	>5.5 µM	>5.5 µM	>5.5 µM	>5.5 µM	>5.5 µM	0.02 µM	0.045 µM	>5.5 µM	5.5 µM	>5.5 µM	>5.5 µM	>5.5 µM	>5.5 µM	>5.5 µM	>5.5 µM	>5.5 µM	>5.5 µM	MIC 50 ([16]; Lactobacillus sakei LMGT 2334): >5.5 µM; MIC 50 [22]: >5.5 µM
MLAKIKAMIKKFPNPYTLAAKLTTYEINWYKQQYGRYPWERPVA [EntEJ97]	>4.7 µM	2.3 µM	0.145 µM	0.145 µM	0.145 µM	0.295 µM	0.295 µM	0.145 µM	0.145 µM	0.295 µM	0.145 µM	0.145 µM	0.295 µM	0.145 µM	0.145 µM	2.3 µM	2.3 µM	1.175 µM	>4.5 µM	0.3 µM	MIC 50 ([16]; Lactobacillus sakei LMGT 2334): >4.7 µM; MIC 50 [22]: 0.59 µM
MKTILRFVAGYDIASHKKKTGGYPWERGKA [LsbB, reference compound]	>7 µM	>7 µM	>7 µM	>7 µM	>7 µM	>7 µM	>7 µM	>7 µM	>7 µM	>7 µM	>7 µM	>7 µM	>7 µM	>7 µM	>7 µM	>7 µM	>7 µM	>7 µM	>7 µM	>7 µM	MIC 50 ([16]; LMGT 2334): >7 µM; MIC 50 [22]: >7 µM
